Among the data in patent publication US6958344B2, “Pyrimidine compounds and their use as modulators of chemokine receptor activity” (AstraZeneca AB, priority 2000, dated 2005) are melting point values, retold here.

What is called melting point is the temperature, or range, at which the solid turns liquid.

`C[C@H](CO)Nc1nc(SCc2ccccc2F)nc2[nH]c(N)nc12` [Example 4, (2R)-2-[[8-amino-2-[[(2-fluorophenyl)methyl]thio]-9H-purin-6-yl]amino]-1-propanol]: the melting point was 250 to 255 °C (dec.).
